According to patent publication US9597391B2, “Cyclic-dinucleotides and its conjugates as adjuvants and their uses in pharmaceutical compositions” (HELMHOLTZ_ZENTRUM FUER INFEKTIONSFORSCHUNG GMBH, priority 2005, dated 2017):

What was measured:
Assay type in all cases: in vivo
BALB/c (H-2d) mice = assay: Serum β-gal-specific IgG ELISA after i.n. or s.c. immunization with β-gal plus adjuvant; details: for β-gal specific IgG titer in sera, i.n. administration: β-gal 30 μg/dose with or without adjuvant 10 μg, end point titers (FIG. 11; FIG. 2)
Experimental: Experimental protocol: six-eight weeks-old female BALB/c (H-2d) mice were purchased from Harlan Winkelmann GmbH (Borchen, Germany) and treated in accordance with local and European Community guidelines. Groups of 5 mice each were immunized on day 1, 14 and 28 with 30 μg of β-gal (Boehringer, Mannheim, Germany), alone or as an admixture with 10 μg c-diGMP or with 10 μpg c-diAMP. For intranasal (i.n.) immunization, 10 μl were applied to each naris, whereas for the s.c. injection β-gal with or without c-diGMP or c-diAMP was resuspended in a volume of 20 μl PBS per animal. Serum samples were collected at day 38 after immunization and stored at −20° C. prior to determination of β-gal-specific antibodies. 96-well Nunc-Immuno MaxiSorp assay plates (Nunc, Roskilde, Denmark) were coated with 100 μl of β-gal (Boehringer, Mannheim, Germany) at 5 μg/ml in 0.05 M carbonate buffer (pH 8.2) per well. Serial two-fold dilutions of sera in PBS with 1% BSA and 0.05% Tween 20 were added (100 μl/well), and plates incubated for 16h at 37° C. After washing, biotinylated γ-chain-specific goat anti-mouse IgG (Sigma Chemie, Deisenhofen, Germany) was added, and plates were incubated for an additional 1 h at 37° C. After four washes, 100 μl of peroxidase-conjugated streptavidin (Pharmingen) was added to cells and plates incubated at 37° C. for 30 min. After four washes, reactions were developed with ABTS in 0.1 M citrate-phosphate buffer (pH 4.35) containing 0.01% H2O2. Results for c-diGMP are shown as OD405 values after serial two-fold dilutions (FIG. 2). […] The effect of c-diGMP as an adjuvant was independent of the route of administration.
In contrast, in the presence of c-diAMP, i.n. administration of β-gal induced very high titers of specific IgG in all mice with titers higher than 500,000 (FIG. 11).
In view of the above in vitro results, additional in vivo studies have been conducted. […] Thus, the capacity of c-diGMP and c-diAMP, respectively, to stimulate efficient humoral immune responses was evaluated, by determining the serum titers of β-gal-specific antibodies in vaccinated mice.

spleen cells [1] = assay: ELISPOT of cytokine producing spleen cells from vaccinated mice; details: for expression of various cytokines: administered as an adjuvant (FIG. 10); for splenic IL-2 producing cells / splenic IL-4 producing cells: i.n. and s.c. route, restimulation with β-Gal protein; for antigen-specific IFNγ secreting cells / antigen-specific IL-2 secreting cells / antigen-specific IL-4 secreting cells: mice receiving adjuvant; for number of splenic IFNγ producing cells, parenteral vaccination: s.c., restimulation with MHC class I-restricted β-Gal peptide (CD8 epitope) (FIG. 10)
Experimental: Experimental protocol: Spleens from vaccinated mice were removed and pooled for analysis of cellular immune responses. The protocol for vaccination was identical to the protocol described in Example 2. Cells were grown in RPMI 1640 supplemented with 10% fetal calf serum, 100 U/ml of penicillin, 50 μg/ml of streptomycin, 5×10^−5 M 2-mercaptoethanol and 1 mM L-glutamine (GIBCO BRL, Karlsruhe, Germany) and maintained at 37° C. in a humidified 5% CO2 atmosphere. […]
For coating ELISPOT plates, said plates were incubated with 100 μl/well of purified capture antibody (10 μg/ml in coating buffer) at 4° C. overnight. After 6× washing steps, the plates were blocked with 200 μl/well of complete RPMI-1640 at room temperature for 1 hour. The activated cells were seeded at 100 μl per well and incubate at 37° C., in a 5% CO2 humidified incubator for 24 hours or 48h hours. After 5× washing steps with washing buffer and 1× step with distilled water, 100 μl/well of the biotinylated detection antibody with a concentration of 1 μg/ml in Assay Diluent was added and incubated at room temperature for 2 hrs. After further washing steps 100 μl/well of the AV-HRP at 1/1000 dilution in Assay Diluent was added and incubated at room temperature for 30 minutes. After further washing steps 100 μl/well of AEC Substrate Solution was added and developed at room temperature for 10-60 minutes until visible spots appeared. After washing steps with (3×) with 200 μl/well distilled water, the plates were air-dried and analyzed by counting the spots by an ELISPOT reader. Each concentration was tested in triplicates.

spleen cells [2] = assay: [3H]thymidine proliferation of spleen cells from vaccinated mice restimulated in vitro with β-gal; details: for T cell proliferation after i.n. and s.c. administration: versus β-gal alone; for proliferation of spleen cells, i.n. immunization / proliferation of spleen cells, s.c. immunization: day 38, in vitro restimulation with β-gal; for proliferation of spleen cells, i.n. immunization: low amounts of antigen (FIG. 6); for proliferation of spleen cells, s.c. immunization: [3H]thymidine (FIG. 6)
Experimental: Experimental protocol: Spleens were removed and pooled for analysis of cellular immune responses. Cells were grown in RPMI 1640 supplemented with 10% fetal calf serum, 100 U/ml of penicillin, 50 μg/ml of streptomycin, 5×10^−5 M 2-mercaptoethanol and 1 mM L-glutamine (GIBCO BRL, Karlsruhe, Germany) and maintained at 37° C. in a humidified 5% CO2 atmosphere. Spleen cell suspensions were adjusted to 5×10^6 cells/ml in complete medium, cells were seeded with 100 μl per well in a flat-bottomed 96-well microtiter plate (Nunc) and plates were incubated for 4 days in the presence of different concentrations of soluble β-gal. That is, T cell mediated immune responses were investigated at day 38 by measuring the proliferation after in vitro restimulation with β-Gal of cells which have been recovered from spleens before. Said spleen cells were obtained from vaccinated mice—said mice where immunized as described in Example 2—and incubated in the presence of different concentrations of the soluble β-Gal antigen. Each concentration was tested in quadruplicates. During the final 18 h of culture, 1 μCi of [3H]thymidine (Amersham International, Freiburg, Germany) was added to each well. Cells were then harvested on paper filters (Filtermat A; Wallac, Freiburg, Germany) by using a cell harvester (Inotech, Wohlen, Switzerland), and the amount of incorporated [3H]thymidine into the DNA of proliferating cells was determined by a β-scintillation counter (Wallac 1450, Micro-Trilux). The results are expressed as the arithmetic mean of [^3H]thymidine uptake in cpm.
Thirty eight days following vaccination, spleens cells were purified, re-stimulated in vitro in the presence of various amounts of β-galactosidase and their proliferative capacity was estimated by measuring the incorporation of [3H]thymidine into their DNA using a β-scintillation counter.

In the case of `Nc1ncnc2c1ncn2[C@@H]1O[C@@H]2COP(=O)(O)O[C@H]3[C@@H](O)[C@H](n4cnc5c(N)ncnc54)O[C@@H]3COP(=O)(O)O[C@H]2[C@H]1O` [c-diAMP, cyclic bis(3′-5′)diadenylic acid], the “β-gal specific IgG titer in sera, i.n. administration” value (BALB/c (H-2d) mice) is reported as “higher than 500,000”, the “expression of various cytokines” value (spleen cells [1]) is reported as “increased expression” and the “splenic IL-2 producing cells” value (spleen cells [1]) is reported as “strong expression”. The “splenic IL-4 producing cells” value (spleen cells [1]) was “strong expression”, the “antigen-specific IFNγ secreting cells” value (spleen cells [1]) was “increased in number” and the “antigen-specific IL-2 secreting cells” value (spleen cells [1]) was “increased in number”. The “antigen-specific IL-4 secreting cells” value (spleen cells [1]) was “increased in number”, the “number of splenic IFNγ producing cells, parenteral vaccination” value (spleen cells [1]) was “increment” and the “T cell proliferation after i.n. and s.c. administration” value (spleen cells [2]) was “statistically significant increment”. For the same compound, the “proliferation of spleen cells, i.n. immunization” value (spleen cells [2]) was “efficient proliferative response” and the “proliferation of spleen cells, s.c. immunization” value (spleen cells [2]) was “further increase in proliferation”.

With `Nc1nc2c(ncn2[C@@H]2O[C@@H]3COP(=O)(O)O[C@H]4[C@@H](O)[C@H](n5cnc6c(=O)[nH]c(N)nc65)O[C@@H]4COP(=O)(O)O[C@H]3[C@H]2O)c(=O)[nH]1` [c-diGMP, cyclic bis(3′-5′)diguanylic acid] the “β-gal specific IgG titer in sera” value (BALB/c (H-2d) mice; 30 μg β-gal + 10 μg adjuvant, day 1, 14, 28, serum day 38, independent of route (i.n., s.c.), FIG. 2, FIG. 3) was “remarkably increased”, the “β-gal specific IgG titer in sera, i.n. administration” value (BALB/c (H-2d) mice) was “increased expression” and the “expression of various cytokines” value (spleen cells [1]) was “increased expression”. The “splenic IL-2 producing cells” value (spleen cells [1]) was “strong expression”, the “splenic IL-4 producing cells” value (spleen cells [1]) was “strong expression” and the “antigen-specific IFNγ secreting cells” value (spleen cells [1]) was “increased in number”. For the same compound, the “antigen-specific IL-2 secreting cells” value (spleen cells [1]) was “increased in number”, the “antigen-specific IL-4 secreting cells” value (spleen cells [1]) was “increased in number” and the “number of splenic IFNγ producing cells, parenteral vaccination” value (spleen cells [1]) was “increment”. The “T cell proliferation after i.n. and s.c. administration” value (spleen cells [2]) was “statistically significant increment”, the “proliferation of spleen cells, i.n. immunization” value (spleen cells [2]) was “efficient proliferative response” and the “proliferation of spleen cells, s.c. immunization” value (spleen cells [2]) was “further increase in proliferation”.
